{
  "source": "patent US20040220268A1",
  "about": "“Compound that directly stimulates phospholipase C activity” (priority 2003, published 2004)",
  "key": {"[1]": {"tested_on": "U937 cells", "test": "Formation of inositol phosphates in cells (in vivo PLC activity)", "type": "cell-based, human", "description": "U937 Cells were labeled with myo-[^3H] inositol (1 μCi/10^6 cells) for 24 h at 37° C. and then treated with various concentrations of m-3M3FBS or o-3M3FBS. Total inositol phosphates were eluted with a solution containing 1 M ammonium formate and 0.1 M formic acid. Radioactivity of the [3H] inositol phosphates was determined by counting in a scintillation counter. Data are presented as means ±S. E. M. of five independent experiments.\nCells grown in culture were harvested by centrifugation, washed with inositol-free RPMI 1640 medium, and resuspended at a density of 2×10^6 cells/ml in the same medium. The cells were then labeled with myo-[^3H] inositol (1 μCi/10^6 cells) for 24 h at 37° C. and rinsed twice with inositol-free RPMI 1640 medium containing 0.5% fetal bovine serum, 20 mM of Hepes at pH 7.2, 20 mM of LiCl, and bovine serum albumin (1 mg/ml) and then resuspended at a density of 2×10^7 cells/ml. A portion (0.1 ml) of the cell suspension was transferred to a microcentrifuge tube and incubated at 37° C. for 15 min. PIP2 hydrolysis was initiated by adding chemicals or solvents for the indicated times. Reactions were terminated by adding 200 μl of ice-cold 10% perchloric acid (HClO4). […] The radioactivity of the [3H] inositol phosphates was determined using a scintillation counter (Tri-Packard, Meriden, Conn.)."}, "[2]": {"molecular_target": "T1, PLC γ1 (Homo sapiens, UniProt P19174)", "T1 sequence (P19174 1-1290)": "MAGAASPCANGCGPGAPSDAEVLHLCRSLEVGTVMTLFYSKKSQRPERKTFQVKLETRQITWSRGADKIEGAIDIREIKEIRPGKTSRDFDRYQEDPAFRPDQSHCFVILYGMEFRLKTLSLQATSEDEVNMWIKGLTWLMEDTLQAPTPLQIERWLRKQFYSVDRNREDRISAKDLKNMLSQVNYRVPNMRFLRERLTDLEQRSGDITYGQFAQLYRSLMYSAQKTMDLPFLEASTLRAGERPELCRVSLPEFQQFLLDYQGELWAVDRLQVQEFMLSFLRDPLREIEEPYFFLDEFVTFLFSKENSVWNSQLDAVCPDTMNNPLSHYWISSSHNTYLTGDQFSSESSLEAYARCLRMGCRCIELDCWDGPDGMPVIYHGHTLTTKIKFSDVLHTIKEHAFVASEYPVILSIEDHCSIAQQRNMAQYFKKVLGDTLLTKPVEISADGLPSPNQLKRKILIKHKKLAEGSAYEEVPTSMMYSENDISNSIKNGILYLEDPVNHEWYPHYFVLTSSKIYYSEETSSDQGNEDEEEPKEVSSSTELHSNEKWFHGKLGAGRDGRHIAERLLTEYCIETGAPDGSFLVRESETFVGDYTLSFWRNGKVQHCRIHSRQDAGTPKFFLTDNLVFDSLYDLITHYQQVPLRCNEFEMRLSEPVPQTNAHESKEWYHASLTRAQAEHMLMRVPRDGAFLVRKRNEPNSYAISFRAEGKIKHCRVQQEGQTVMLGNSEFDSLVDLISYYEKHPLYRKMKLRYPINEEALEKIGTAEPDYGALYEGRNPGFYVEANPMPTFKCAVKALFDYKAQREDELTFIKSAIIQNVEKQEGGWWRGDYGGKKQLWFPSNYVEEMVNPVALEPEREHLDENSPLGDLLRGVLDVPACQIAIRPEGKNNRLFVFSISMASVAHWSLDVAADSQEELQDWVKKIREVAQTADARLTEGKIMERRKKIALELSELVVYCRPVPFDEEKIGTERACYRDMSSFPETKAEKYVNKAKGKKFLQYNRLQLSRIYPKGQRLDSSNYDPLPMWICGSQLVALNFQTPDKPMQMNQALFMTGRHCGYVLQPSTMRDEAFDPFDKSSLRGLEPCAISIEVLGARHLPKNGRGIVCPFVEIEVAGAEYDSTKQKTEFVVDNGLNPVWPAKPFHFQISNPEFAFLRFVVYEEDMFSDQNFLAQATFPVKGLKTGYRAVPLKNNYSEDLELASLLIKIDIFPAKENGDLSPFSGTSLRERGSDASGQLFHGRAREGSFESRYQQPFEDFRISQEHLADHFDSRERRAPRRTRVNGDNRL", "test": "Phosphoinositide hydrolysis in vitro", "type": "biochemical", "conditions": "25 μM; purified isozyme", "description": "The hydrolyzing activity of PtdIns-4,5-P2 was measured on mixed phospholipid vesicles containing 120 μM phosphatidylethanolamine, 30 μM PtdIns-4,5-P2, and 1 μCi/ml [3H] PtdIns-4,5-P2. Purified PLC β2, substrates, and the chemicals (2.5, 5, 10, 20, and 25 μM of m-3M3FBS or of o-3M3FBS) were coincubated (A), 25 μM of m-3M3FBS or o-3M3FBS, and phospholipid substrates were mixed with purified PLC β3, γ1, 2, or δ1 (B). Reactions were performed for 10 min at 37° C. in a 200 μl reaction mixture containing lipid micelles (5 μM [^3H] PtdIns-4,5-P2, 20,000 cpm). Reactions were stopped by adding 1 ml of CHCl3:CH3OH:HCl (50:50:0.3, v/v/v). Inositol trisphosphates were extracted with 0.5 ml of 1 M HCl/5 mM EGTA, and the radioactivity in the upper aqueous phase was measured. Data are presented as means ±S. E. M. of three independent experiments (A, B).\nPLC activity was assayed using [^3H] PtdIns-4,5-P2 as a substrate (Min et al., 1993). PtdIns-4,5-P2-hydrolyzing activity was measured with mixed phospholipid micelles containing 120 μM phosphatidylethanolamine, 30 μM PtdIns-4,5-P2, and 1 μCi/ml [^3H] PtdIns-4,5-P2. The lipids, in chloroform, were dried under a stream of nitrogen gas, suspended in assay buffer (20 mM HEPES pH 7.0, 120 mM NaCl, 2 mM MgCl2, 40 or 100 μM CaCl2, and 1 mg/ml bovine albumin serum (Bayer, Leverkusen, Germany)), and sonicated. All proteins added to the reaction mixture were dialyzed overnight against the assay buffer. Incubation was performed for 10 min at 37° C. in a 200 μl reaction mixture containing lipid micelles (5 μM [3H] PtdIns-4,5-P2, 20,000 cpm). The reaction was stopped by adding 2 ml of CHCl3: CH3OH: HCl (50: 50: 0.3, v/v/v). The inositol triphosphates were extracted with 0.5 ml of 1 N HCl, and radioactivities in the upper aqueous phase were measured."}},
  "data": [
    {"smiles": "Cc1cc(C)c(S(=O)(=O)Nc2cccc(C(F)(F)F)c2)c(C)c1", "note": "[m-3M3FBS, 2,4,6-Trimethyl-N-(meta 3-trifluoromethyl-phenyl)-benzenesulfonamide]", "values": [
      {"measurement": "fold increase of accumulation of inositol phosphates", "setting": "[1]; 50 μM", "result": 2.5, "unit": "fold"},
      {"measurement": "activity of PLC gamma1", "setting": "[2]", "result": "augmented the activity"}
    ]},
    {"smiles": "Cc1cc(C)c(S(=O)(=O)Nc2ccccc2C(F)(F)F)c(C)c1", "note": "[o-3M3FBS, 2,4,6-Trimethyl-N-(ortho 3-trifluoromethyl-phenyl)-benzenesulfonamide, reference compound]", "values": [
      {"measurement": "effect on PLC activity (inositol phosphate formation)", "setting": "[1]", "result": "no effect"},
      {"measurement": "activity of PLC gamma1", "setting": "[2]", "result": "did not affect"}
    ]}
  ]
}
